Test results: patent US20080145858A1, “DETECTION AND IDENTIFICATION OF TOXICANTS BY MEASUREMENT OF GENE […]” (priority 2003, published 2008)

Tested on: Xenopus laevis embryos (stage 8 and stage 15)
Assay: Verification of microarray analysis by RT-PCR with biotinylated primers
Type: in vivo
Settings: for expression of genes of ESTs PBX0135A08 and PBX013409: microarray and RT-PCR in agreement
Excerpt: Up-regulation of the clone Nos. PBX0135A08 and PBX0134E09 (underlined and shaded genes in Table 1, Panel A) were verified by RT-PCR of the genes. […] The DNA product obtained by RT-PCR using biotinylated primers of clone No. PBX0135A08 was separated by 1% agarose gel electophoresis and visualized by ethidium bromide staining (FIG. 3, Panel A). The DNA fragments were blotted to a nitrocellulose membrane and visualized by a streptavidin-horseradish peroxidase/ECL system (FIG. 3, Panel B). Though a single band for each reaction was visible in the ethidium bromide stained gel (FIG. 3, Panel A), multiple bands were obtained by the ECL system (FIG. 3, Panel B). When the biotin-labeled DNA in the gel was depurinated and denaturated by treatment with 0.25 M HCl followed by 1.5 M NaCl/0.56 N NaOH, the major 380 bp species were efficiently transferred and similar pattern to that observed using the ECL method was obtained (FIG. 3, Panel C). The effect was also observed with RT-PCR of clone No. PBX0134E09. mRNA levels of clones No. PBX0135A08 and No. PBX013409 increased after PMA treatment at stage 8 (Table 2).
In FIG. 3 the DNA products were obtained from 2 independent RT-PCR reactions using mRNA from untreated blastula stage 8 embryos (lanes 1 and 2), PMA-treated cleavage stage 8 embryos (lanes 3 and 4), untreated neurula stage 15 embryos (lanes 5 and 6), and PMA-treated neurula stage 15 embryos (lane 7 and 8). The 380 bp biotin-labeled DNA fragments were separated by gel electrophoresis on 1% agarose gel without further treatment (panel A and B) or following depurination and denaturation (panel C). In panel A, the DNA was detected by ultraviolet light following ethidium bromide staining. In panels B and C, the DNA was transferred to nitrocellulose membrane and detected by streptavidin-horseradish peroxidase ECL.

CCCCCCCCCCCCCC(=O)O[C@@H]1[C@@H](C)[C@@]2(O)[C@@H](C=C(CO)C[C@]3(O)C(=O)C(C)=C[C@@H]23)[C@@H]2C(C)(C)[C@]12OC(C)=O [PMA, phorbol 12-myristate 12-acetate]
expression of genes of ESTs PBX0135A08 and PBX013409 (cleavage embryos, stage 8): highly up-regulated | expression of genes of ESTs PBX0135A08 and PBX013409 (embryos undergoing neurulation, stage 15): unaffected | % increase of mRNA expression by RT-PCR (gene PBX0135A08, Stage 8): 260% of control | % increase of mRNA expression by RT-PCR (gene PBX0135A08, Stage 15): no change | % increase of mRNA expression by RT-PCR (gene PBX013409, Stage 8, not detected in control but strong band after PMA treatment): highly induced^b | % increase of mRNA expression by RT-PCR (gene PBX013409, Stage 15): no change
